Reference: patent publication US12091425B2 (AMGEN INC., priority 2016, dated 2024)

target: T1, Mcl-1/Bim interaction, recombinant human Mcl-1 (171-327) (Homo sapiens, UniProt Q07820); assay: Cell free Mcl-1: Bim Affinity Assay (Mcl-1 HTRF); format: binding; conditions: cell free Mcl-1:Bim TR-FRET, recombinant human Mcl-1 (171-327)
T1 construct: made in house
Summary of the method: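 Displacement of biotinylated Bim 51-76 peptide is followed by TR-FRET. Incubation runs overnight. Duplicate points are fitted with a four-parameter sigmoid to yield IC50.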

T1 sequence (Q07820 171-327): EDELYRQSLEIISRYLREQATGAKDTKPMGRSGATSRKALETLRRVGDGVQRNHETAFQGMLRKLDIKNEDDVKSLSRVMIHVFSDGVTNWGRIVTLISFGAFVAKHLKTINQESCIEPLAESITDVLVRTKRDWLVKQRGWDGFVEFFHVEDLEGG

SMILES	IC50 [nM]
O=C1NS(=O)(=O)CCCCC[C@@H](CO)[C@@H]2CC[C@H]2CN2C[C@@]3(CCCc4cc(Cl)ccc43)COc3ccc1cc32 (single isomer, unassigned) [Example 898, (1S,3′R,6′R,7′R)-6-chloro-7′-(hydroxymethyl)-3,4-dihydro-2H,15′H-spiro[naphthalene-1,22′-[20]oxa[13]thia[1,14]diazatetracyclo[14.7.2.0^3,6.0^19,24]pentacosa [16,18,24]trien]-15′-one 13′,13′-dioxide or (1S,3′R,6′R,7′S)-6-chloro-7′-(hydroxymethyl)-3,4-dihydro-2H,15′H-spiro[naphthalene-1,22′[20]oxa[13]thia[1,14]diazatetracyclo[14.7.2.0^3,6.0^19,24]pentacosa[16,18,24]trien]-15′-one 13′,13′-dioxide]	4.03
O=C1NS(=O)(=O)CCC[C@]2(O)CCO[C@H](C2)[C@@H]2CC[C@H]2CN2C[C@@]3(CCCc4cc(Cl)ccc43)COc3ccc1cc32 (single isomer, unassigned) [Example 900]	4.33
O=C1NS(=O)(=O)CCCCC[C@@H](CO)[C@@H]2CC[C@H]2CN2C[C@@]3(CCCc4cc(Cl)ccc43)COc3ccc1cc32 (single isomer, unassigned) [Example 906, (1S,3′R,6′R,7′R)-6-chloro-7′-(hydroxymethyl)-3,4-dihydro-2H,15′H-spiro[naphthalene-1,22′-[20]oxa[13]thia[1,14]diazatetracyclo[14.7.2.0^3,6.0^19,24]pentacosa [16,18,24]trien]-15′-one 13′,13′-dioxide or (1S,3′R,6′R,7′)-6-chloro-7′-(hydroxymethyl)-3,4-dihydro-2H,15′H-spiro[naphthalene-1,22′-[20]oxa[13]thia[1,14]diazatetracyclo[14.7.2.0^3,6.0^19,24]pentacosa [16,18,24]trien]-15′-one 13′,13′-dioxide]	9.03
C[C@@H]1CCCCCS(=O)(=O)NC(=O)c2ccc3c(c2)N(C[C@@H]2CC[C@H]21)C[C@@]1(CCCc2cc(Cl)ccc21)CO3 (single isomer, unassigned) [Example 907, (1S,3′R,6′S, 7′R)-6-chloro-7′-methyl-3,4-dihydro-2H,15′H-spiro[naphthalene-1,22′-[20]oxa[13]thia[1,14]diazatetracyclo[14.7.2.0^3,6.0^19,24]pentacosa [16,18,24]trien]-15′-one 13′,13′-dioxide or (1S,3′R,6′S, 7′S)-6-chloro-7′-methyl-3,4-dihydro-2H,15′H-spiro[naphthalene-1,22′-[20]oxa[13]thia[1,14]diazatetracyclo[14.7.2.0^3,6.0^19,24]pentacosa [16,18,24]trien]-15′-one 13′,13′-dioxide]	18.9
O=C1NS(=O)(=O)CCCC2(O)CCOC(C2)C2CCC2CN2CC3(CCCc4cc(Cl)ccc43)COc3ccc1cc32 (single isomer, unassigned) [Example 910]	5.8
O=C1NS(=O)(=O)C/C=C/C[C@@H](O)C[C@@H]2CC[C@H]2CN2C[C@@]3(CCCc4cc(Cl)ccc43)COc3ccc1cc32 (single isomer, unassigned) [Example 912]	7.78
O=C1NS(=O)(=O)CC=CCC(O)CC2CCC2CN2CC3(CCCc4cc(Cl)ccc43)COc3ccc1cc32 (single isomer, unassigned) [Example 913]	6.1
O=C1NS(=O)(=O)C/C=C\C[C@@H](O)C[C@@H]2CC[C@H]2CN2C[C@@]3(CCCc4cc(Cl)ccc43)COc3ccc1cc32 (single isomer, unassigned) [Example 914]	1.87
O=C1NS(=O)(=O)/C=C/COC[C@@H](O)[C@@H]2CC[C@H]2CN2C[C@@]3(CCCc4cc(Cl)ccc43)COc3ccc1cc32 (single isomer, unassigned) [Example 917, (3R,6R,7S,11E,22S)-6′-chloro-7-hydroxy-3′,4′-dihydro-2′H,15H-spiro[9,20-dioxa-13-thia-1,14-diazatetracyclo[14.7.2.0^3,6.0^19,24]pentacosa-11,16,18,24-tetraene-22,1′-naphthalen]-15-one 13,13-dioxide or (3R,6R,7R,11E, 22S)-6′-chloro-7-hydroxy-3′,4′-dihydro-2′H,15H-spiro[9,20-dioxa-13-thia-1,14-diazatetracyclo[14.7.2.0^3,6.0^19,24]pentacosa-11,16,18,24-tetraene-22,1′-naphthalen]-15-one 13,13-dioxide]	4.11
O=C1NS(=O)(=O)CCCOC[C@@H](O)[C@@H]2CC[C@H]2CN2C[C@@]3(CCCc4cc(Cl)ccc43)COc3ccc1cc32 (single isomer, unassigned) [Example 923, (3R,6R,7S,22S)-6′-chloro-7-hydroxy-3′,4′-dihydro-2′H,15H-spiro[9,20-dioxa-13-thia-1,14-diazatetracyclo[14.7.2.0^3,6.0^19,24]pentacosa-16,18,24-triene-22,1′-naphthalen]-15-one 13,13-dioxide or (3R,6R,7R,22S)-6′-chloro-7-hydroxy-3′,4′-dihydro-2′H,15H-spiro[9,20-dioxa-13-thia-1,14-diazatetracyclo[14.7.2.0^3,6.0^19,24]pentacosa-16,18,24-triene-22,1′-naphthalen]-15-one 13,13-dioxide]	17.8
O=C1NS(=O)(=O)CCC[C@]2(O)CCO[C@H](C2)[C@@H]2CC[C@H]2CN2C[C@@]3(CCCc4cc(Cl)ccc43)COc3ccc1cc32 (single isomer, unassigned) [Example 924]	5.07
CN[C@H]1CCCCCS(=O)(=O)NC(=O)c2ccc3c(c2)N(C[C@@H]2CC[C@H]21)C[C@@]1(CCCc2cc(Cl)ccc21)CO3 (single isomer, unassigned) [Example 927, (1S,3′R,6′R,7′S)-6-chloro-7′-(methylamino)-3,4-dihydro-2H,15′H-spiro[naphthalene-1,22′-[20]oxa[13]thia[1,14]diazatetracyclo[14.7.2.0^3,6.0^19,24]pentacosa [16,18,24]trien]-15′-one 13′,13′-dioxide or (1S,3′R,6′R,7′R)-6-chloro-7′-(methylamino)-3,4-dihydro-2H,15′H-spiro[naphthalene-1,22′-[20]oxa[13]thia[1,14]diazatetracyclo[14.7.2.0^3,6.0^19,24]pentacosa [16,18,24]trien]-15′-one 13′,13′-dioxide]	46.2
O=C1NS(=O)(=O)CCCCC[C@H](NCCO)[C@@H]2CC[C@H]2CN2C[C@@]3(CCCc4cc(Cl)ccc43)COc3ccc1cc32 (single isomer, unassigned) [Example 929]	40
O=C1NS(=O)(=O)CCCCC[C@@H](NCC(F)(F)F)[C@@H]2CC[C@H]2CN2C[C@@]3(CCCc4cc(Cl)ccc43)COc3ccc1cc32 (single isomer, unassigned) [Example 930]	19.6
O=C1NS(=O)(=O)CCCCC[C@@H](NO)[C@@H]2CC[C@H]2CN2C[C@@]3(CCCc4cc(Cl)ccc43)COc3ccc1cc32 (single isomer, unassigned) [Example 933, (1S,3′R,6′R,7′R)-6-chloro-7′-(hydroxyamino)-3,4-dihydro-2H,15′H-spiro[naphthalene-1,22′-[20]oxa[13]thia[1,14]diazatetracyclo[14.7.2.0^3,6.0^19,24]pentacosa [16,18,24]trien]-15′-one 13′,13′-dioxide or (1S,3′R,6′R,7′S)-6-chloro-7′-(hydroxyamino)-3,4-dihydro-2H,15′H-spiro[naphthalene-1,22′-[20]oxa[13]thia[1,14]diazatetracyclo[14.7.2.0^3,6.0^19,24]pentacosa [16,18,24]trien]-15′-one 13′,13′-dioxide]	15
